Reference: PubChem BioAssay (NCI)
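Briefly, cells in 96-well plates were exposed to five compound concentrations for 48 h, and endpoints were estimated by linear interpolation. GI50 marks 50% less growth. TGI denotes the concentration required for complete inhibition of growth.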

Assays:
Experiment in all cases: DTP human tumour cell line panel, 48 h
[1] = test system: K-562 leukemia
[2] = test system: NCI-H460 lung
[3] = test system: SN12C renal
[4] = test system: SF-539 CNS
[5] = test system: SW-620 colon
[6] = test system: CCRF-CEM leukemia
[7] = test system: TK-10 renal
[8] = test system: SNB-75 CNS
[9] = test system: MDA-MB-231 breast
[10] = test system: UACC-62 melanoma

## O=C(c1cc(-c2cc3c(cc2C(=O)N2Cc4ccccc4C[C@H]2CN2CCOCC2)OCO3)n2c1CCCC2)N(c1ccccc1)c1ccc(O)cc1
[1]
  GI50: 3.88 µM
  TGI: > 100 µM
[2]
  GI50: 7.09 µM
  TGI: > 100 µM
[3]
  GI50: 8.6 µM
  TGI: > 100 µM
[4]
  GI50: 15.7 µM
  TGI: > 100 µM
[5]
  GI50: 17.3 µM
  TGI: > 100 µM
[6]
  GI50: 3.34 µM
  TGI: > 100 µM
[7]
  GI50: 27.8 µM
  TGI: > 100 µM
[8]
  GI50: 3.61 µM
  TGI: > 100 µM
[9]
  GI50: 10.9 µM
  TGI: 53.3 µM
[10]
  GI50: 8.62 µM
  TGI: > 100 µM

## CNC1NC(=O)c2ccccc2N1Cc1ccc(F)cc1 (configuration not stated)
[1]
  TGI: > 100 µM
[2]
  TGI: > 100 µM
[3]
  TGI: > 100 µM
[4]
  TGI: > 100 µM
[5]
  TGI: > 100 µM
[6]
  TGI: > 100 µM
[7]
  TGI: > 100 µM
[8]
  TGI: > 100 µM
[9]
  TGI: > 100 µM
[10]
  TGI: > 100 µM

## CCC(C)/C=C(C)/C=C/C(=O)c1c(O)c(-c2ccc(O)cc2)c[nH]c1=O (configuration not stated)
[1]
  GI50: 3.39 µM
  TGI: 15.1 µM
[2]
  GI50: 3.04 µM
  TGI: 8.82 µM
[3]
  GI50: 3.86 µM
  TGI: 18.1 µM
[4]
  GI50: 3.3 µM
  TGI: 12.5 µM
[5]
  GI50: 3.5 µM
  TGI: 11.9 µM
[6]
  GI50: 2.58 µM
  TGI: 19.7 µM
[7]
  GI50: 4.32 µM
  TGI: 15.3 µM
[8]
  GI50: 3.3 µM
  TGI: 14.3 µM
[9]
  GI50: 5.09 µM
  TGI: 21.4 µM
[10]
  GI50: 3.73 µM
  TGI: 15.9 µM

## Cc1ccc2c(=O)[nH]sc2c1
[1]
  TGI: 47.2 µM
[2]
  TGI: > 100 µM
[3]
  TGI: 22.7 µM
[4]
  TGI: 26.9 µM
[5]
  TGI: 33.2 µM
[6]
  TGI: 13.9 µM
[7]
  TGI: 33.9 µM
[8]
  TGI: > 100 µM
[9]
  TGI: 31.2 µM
[10]
  TGI: 41.2 µM

## CN1CCN(Cc2ccc(NC(=O)c3[nH]ncc3Nc3ncnc4c3CCC4)cc2)CC1
[1]
  GI50: 0.648 µM
  TGI: 12.1 µM
[2]
  GI50: 1.87 µM
  TGI: 10.6 µM
[3]
  GI50: 1.01 µM
  TGI: 20.2 µM
[4]
  GI50: 0.52 µM
  TGI: 2.61 µM
[5]
  GI50: 0.836 µM
  TGI: 10.3 µM
[6]
  GI50: 0.611 µM
  TGI: 11 µM
[7]
  GI50: 4.02 µM
  TGI: 8.85 µM
[8]
  GI50: 0.0341 µM
  TGI: 3.2 µM
[9]
  GI50: 2.98 µM
  TGI: 7.8 µM
[10]
  GI50: 3.24 µM
  TGI: 13.5 µM

## Cn1c2ccccc2c2nnc(N/N=C/c3ccccn3)nc21
[1]
  GI50: 1.75 µM
  TGI: > 39.6 µM
[2]
  GI50: 0.346 µM
  TGI: 5.69 µM
[3]
  GI50: 0.286 µM
[4]
  GI50: 0.284 µM
  TGI: 0.854 µM
[5]
  GI50: 0.509 µM
  TGI: > 82.1 µM
[6]
  GI50: 0.301 µM
  TGI: > 33.1 µM
[7]
  GI50: 0.413 µM
  TGI: > 57.8 µM
[8]
  GI50: 1.09 µM
  TGI: 6.78 µM
[9]
  GI50: 0.478 µM
  TGI: 38.1 µM
[10]
  GI50: 0.3 µM
  TGI: 1.03 µM

## O=c1[nH]nc2c3c(cccc13)NC(CN1Cc3ccccc3C1)=N2
[1]
  GI50: 8.19 µM
  TGI: > 100 µM
[2]
  GI50: 5.25 µM
  TGI: > 100 µM
[3]
  GI50: 6.75 µM
  TGI: > 100 µM
[4]
  GI50: 7.9 µM
  TGI: > 100 µM
[5]
  GI50: 7.03 µM
  TGI: > 100 µM
[6]
  GI50: 4.42 µM
  TGI: > 100 µM
[7]
  GI50: 8.89 µM
  TGI: > 100 µM
[8]
  GI50: 2.77 µM
  TGI: > 100 µM
[9]
  GI50: 5.5 µM
  TGI: > 100 µM
[10]
  GI50: 4.44 µM
  TGI: > 100 µM

## O=C1C(Cl)=C(N2CCOCC2)C(=O)c2ccccc21
[1]
  GI50: 2.15 µM
  TGI: 7.8 µM
[2]
  GI50: 20.2 µM
  TGI: 42.8 µM
[3]
  GI50: 10.7 µM
  TGI: 23.1 µM
[4]
  GI50: 20.1 µM
  TGI: 34.6 µM
[5]
  GI50: 1.76 µM
  TGI: 3.51 µM
[6]
  GI50: 2.53 µM
  TGI: 6.77 µM
[7]
  GI50: 16.7 µM
  TGI: 30.4 µM
[8]
  GI50: 14.2 µM
  TGI: 27.8 µM
[9]
  GI50: 1.75 µM
  TGI: 3.72 µM
[10]
  GI50: 3.06 µM
  TGI: 10.7 µM

## O=C(Nc1ccc(Nc2ccncc2)cc1)c1ccc(Nc2ccnc3ccc([N+](=O)[O-])cc23)cc1
[1]
  GI50: > 100 µM
  TGI: > 100 µM
[2]
  GI50: 6.27 µM
  TGI: > 100 µM
[3]
  GI50: > 100 µM
  TGI: > 100 µM
[4]
  GI50: > 100 µM
  TGI: > 100 µM
[5]
  GI50: > 100 µM
  TGI: > 100 µM
[6]
  GI50: > 100 µM
  TGI: > 100 µM
[7]
  GI50: > 100 µM
  TGI: > 100 µM
[8]
  GI50: > 100 µM
  TGI: > 100 µM
[9]
  GI50: 78.2 µM
  TGI: > 100 µM
[10]
  GI50: 68.1 µM
  TGI: > 100 µM

## CN(C)CCNC(=O)c1cc([N+](=O)[O-])ccn1
[1]
  TGI: 52.2 µM
[2]
  TGI: > 100 µM
[3]
  TGI: 64 µM
[4]
  TGI: 59.4 µM
[5]
  TGI: > 100 µM
[6]
  TGI: 91.8 µM
[7]
  TGI: > 100 µM
[8]
  TGI: > 100 µM
[9]
  TGI: 58.1 µM
[10]
  TGI: 42.3 µM

## N#CSCC1CC(O)(c2ccccc2)C(c2ccccc2)C(c2ccc(F)cc2)O1 (configuration not stated)
[1]
  GI50: 1.5 µM
  TGI: 5.97 µM
[2]
  GI50: 4.53 µM
  TGI: 18.1 µM
[3]
  GI50: 2.05 µM
  TGI: 5.27 µM
[4]
  GI50: 3.15 µM
  TGI: 7.69 µM
[5]
  GI50: 3.02 µM
  TGI: 10 µM
[6]
  GI50: 3.09 µM
  TGI: > 100 µM
[7]
  GI50: 2.38 µM
  TGI: 6.3 µM
[8]
  GI50: 7.63 µM
  TGI: 45.2 µM
[9]
  GI50: 2.53 µM
  TGI: 8.62 µM
[10]
  GI50: 1.9 µM
  TGI: 5.58 µM

## Fc1ccc(-c2nnc3sc(-c4cccc(Cl)c4)nn23)cc1Cl
[1]
  GI50: > 100 µM
  TGI: > 100 µM
[2]
  GI50: > 100 µM
  TGI: > 100 µM
[3]
  GI50: > 100 µM
  TGI: > 100 µM
[4]
  GI50: > 100 µM
  TGI: > 100 µM
[5]
  GI50: > 100 µM
  TGI: > 100 µM
[6]
  GI50: > 100 µM
  TGI: > 100 µM
[7]
  GI50: > 100 µM
  TGI: > 100 µM
[8]
  GI50: 44.4 µM
  TGI: > 100 µM
[9]
  GI50: > 100 µM
  TGI: > 100 µM
[10]
  GI50: > 100 µM
  TGI: > 100 µM

## CC(=O)Oc1cccc2c1C(=O)C(Br)(Br)CCC2
[1]
  TGI: 20.8 µM
[2]
  TGI: 43.6 µM
[3]
  TGI: 19.7 µM
[4]
  TGI: 23.1 µM
[5]
  TGI: 9.13 µM
[6]
  TGI: 9.91 µM
[7]
  TGI: 30.8 µM
[8]
  TGI: 16.5 µM
[9]
  TGI: 8.41 µM
[10]
  TGI: 20.9 µM

## C=C(CN1CCN(c2ccccc2F)CC1)c1ccc(C(=O)Nc2ccccc2N)cc1
[1]
  GI50: 0.986 µM
  TGI: > 100 µM
[2]
  GI50: 4.44 µM
  TGI: > 100 µM
[3]
  GI50: 1.82 µM
  TGI: 40.9 µM
[4]
  GI50: 1.55 µM
  TGI: 6.31 µM
[5]
  GI50: 1.97 µM
  TGI: > 100 µM
[7]
  GI50: 1.7 µM
  TGI: 59.8 µM
[8]
  GI50: 2.27 µM
  TGI: 8.14 µM
[9]
  GI50: 0.24 µM
  TGI: 3.14 µM
[10]
  GI50: 1.16 µM
  TGI: 18.3 µM
